The values below come from patent US7098340B2, “Benzyl sulfonamide derivatives” (Warner Lambert Company LLC, priority 2003, dated 2006).

The target of this experiment is T1, androgen receptor (Homo sapiens, UniProt P10275).
T1 sequence (P10275 1-920 Q868H): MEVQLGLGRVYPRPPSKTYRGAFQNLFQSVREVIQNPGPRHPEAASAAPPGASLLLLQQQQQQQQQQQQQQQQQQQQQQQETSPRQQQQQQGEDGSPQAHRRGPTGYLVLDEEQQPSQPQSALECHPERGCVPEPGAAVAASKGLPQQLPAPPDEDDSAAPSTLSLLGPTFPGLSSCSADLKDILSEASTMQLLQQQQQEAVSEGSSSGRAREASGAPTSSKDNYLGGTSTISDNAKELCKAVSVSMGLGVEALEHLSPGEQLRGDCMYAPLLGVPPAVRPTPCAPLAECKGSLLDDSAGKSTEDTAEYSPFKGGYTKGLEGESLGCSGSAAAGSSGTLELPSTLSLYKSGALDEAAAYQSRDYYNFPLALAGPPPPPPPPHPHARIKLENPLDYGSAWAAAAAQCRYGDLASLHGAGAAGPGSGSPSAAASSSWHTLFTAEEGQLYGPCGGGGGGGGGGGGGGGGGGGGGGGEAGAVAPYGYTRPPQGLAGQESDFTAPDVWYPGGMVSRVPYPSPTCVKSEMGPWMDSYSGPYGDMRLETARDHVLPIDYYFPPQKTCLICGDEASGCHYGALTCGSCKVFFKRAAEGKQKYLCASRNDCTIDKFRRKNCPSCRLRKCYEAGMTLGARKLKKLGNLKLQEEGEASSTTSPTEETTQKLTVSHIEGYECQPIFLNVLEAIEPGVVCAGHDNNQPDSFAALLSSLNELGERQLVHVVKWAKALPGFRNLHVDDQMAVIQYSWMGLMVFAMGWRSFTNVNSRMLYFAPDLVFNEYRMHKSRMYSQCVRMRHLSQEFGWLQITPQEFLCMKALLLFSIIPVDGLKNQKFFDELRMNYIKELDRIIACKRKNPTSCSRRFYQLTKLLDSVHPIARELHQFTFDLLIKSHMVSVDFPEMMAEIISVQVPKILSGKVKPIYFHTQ
The experiment is described as follows: AR Antagonist Cell Assay (MMTV-luciferase reporter, DHT-stimulated). Format: cell-based. The note with it: MDA-MB453-MMTV clone 54-19 cells; antagonism of 100 pM DHT, 17 hr, luciferase readout. Put shortly:
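MDA-MB453 cells stably carrying MMTV-ARE-firefly luciferase, in 1% charcoal-treated serum, preincubated 30 min with compound (10 uM or 1 uM) then stimulated with 100 pM DHT for 17 h at 37° C. Luminescence read; result as % inhibition of DHT fold induction.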
Background: Reporter assays use an easily measured gene product as a stand-in for the process of interest.

Regarding `O=c1cc(C(F)(F)F)c2cc(Cc3ccc(S(=O)(=O)NCc4ccc5c(c4)CCO5)cc3)ccc2o1` [Example 189, N-(2,3-Dihydrobenzofuran-5-ylmethyl)-4-(2-oxo-4-trifluoromethyl-2H-chromen-6-ylmethyl)benzenesulfonamide], the IC50 – broadly, the concentration that inhibits the measured activity by half – is 2.51 µM.
Then `O=c1cc(C(F)(F)F)c2cc(Cc3ccc(S(=O)(=O)N[C@H]4CCCC[C@H]4OCc4ccccc4)cc3)ccc2[nH]1` [Example 93, N-(2-Benzyloxycyclohexyl)-4-(2-oxo-4-trifluoromethyl-1,2-dihydroquinolin-6-ylmethyl)-benzenesulfonamide], with above 10 µM; and `O=c1cc(C(F)(F)F)c2cc(Cc3ccc(S(=O)(=O)NC4CCN(Cc5ccccc5)C4)cc3)ccc2[nH]1` (centres unmarked) [Example 86], with 2.28 µM.
`CC(C)(C)SCCNS(=O)(=O)c1ccc(Cc2ccc3[nH]c(=O)cc(C(F)(F)F)c3c2)cc1` [Example 82, N-(2-tert-Butylsulfanylethyl)-4-(2-oxo-4-trifluoromethyl-1,2-dihydroquinolin-6-ylmethyl)-benzenesulfonamide] gave an IC50 above 10 µM.
The compound `CCOC(=O)CC(NS(=O)(=O)c1ccc(Cc2ccc3oc(=O)cc(C(F)(F)F)c3c2)cc1)c1ccccc1` (centres unmarked) [Example 205, 3-[4-(2-Oxo-4-trifluoromethyl-2H-chromen-6-ylmethyl)-benzenesulfonylamino]-3-phenylpropionic acid ethyl ester] showed an IC50 of 3.43 µM. This counts as single-digit micromolar.
Then `O=c1cc(C(F)(F)F)c2cc(Cc3ccc(S(=O)(=O)NCc4ccc(F)cc4Cl)cc3)ccc2o1` [Example 198], with 5.93 µM; and `O=c1cc(C(F)(F)F)c2cc(Cc3ccc(S(=O)(=O)NC4(CO)CCCC4)cc3)ccc2o1` [Example 167, N-(1-Hydroxymethyl-cyclopentyl)-4-(2-oxo-4-trifluoromethyl-2H-chromen-6-ylmethyl)benzenesulfonamide], with above 10 µM.
The compound `O=c1cc(C(F)(F)F)c2cc(Cc3ccc(S(=O)(=O)Nc4cccc(OC(F)(F)F)c4)cc3)ccc2o1` [Example 147, 4-(2-Oxo-4-trifluoromethyl-2H-chromen-6-ylmethyl)-N-(3-trifluoromethoxyphenyl)-benzenesulfonamide] displayed an IC50 of 8.58 µM.
In the case of `O=c1cc(C(F)(F)F)c2cc(Cc3ccc(S(=O)(=O)Nc4cccc(OCc5ccccc5)c4)cc3)ccc2o1` [Example 152, N-(3-Benzyloxyphenyl)-4-(2-oxo-4-trifluoromethyl-2H-chromen-6-ylmethyl)-benzenesulfonamide], the concentration for half-maximal inhibition (IC50) was determined as 0.77 µM.
Then `O=c1cc(C(F)(F)F)c2cc(Cc3ccc(S(=O)(=O)NCCCn4ccnc4)cc3)ccc2[nH]1` [Example 60, N-(3-Imidazol-1-ylpropyl)-4-(2-oxo-4-trifluoromethyl-1,2-dihydroquinolin-6-ylmethyl)-benzenesulfonamide], with 9.16 µM.
The compound `CCCN(CC1CC1)S(=O)(=O)c1ccc(Cc2ccc3oc(=O)cc(C(F)(F)F)c3c2)cc1` [Example 104, N-Cyclopropylmethyl-4-(2-oxo-4-trifluoromethyl-2H-chromen-6-ylmethyl)-N-propylbenzenesulfonamide] had an IC50 of 1.79 µM.
As for `O=c1cc(C(F)(F)F)c2cc(Cc3ccc(S(=O)(=O)Nc4ccc5ncccc5c4)cc3)ccc2o1` [Example 125, 4-(2-Oxo-4-trifluoromethyl-2H-chromen-6-ylmethyl)-N-quinolin-6-ylbenzenesulfonamide], the IC50 is above 10 µM.
Compound `O=c1cc(C(F)(F)F)c2cc(Cc3ccc(S(=O)(=O)NCc4c(F)ccc(F)c4Cl)cc3)ccc2[nH]1` [Example 87, N-(2-Chloro-3,6-difluorobenzyl)-4-(2-oxo-4-trifluoromethyl-1,2-dihydroquinolin-6-ylmethyl)-benzenesulfonamide] returned a concentration for half-maximal inhibition (IC50) above 10 µM.
Consider `COc1ccc(N(Cc2ccccc2)S(=O)(=O)c2ccc(Cc3ccc4oc(=O)cc(C(F)(F)F)c4c3)cc2)cc1` [Example 154, N-Benzyl-N-(4-methoxyphenyl)-4-(2-oxo-4-trifluoromethyl-2H-chromen-6-ylmethyl)benzenesulfonamide], for which half-maximal inhibition (IC50) was put at 6.06 µM.
Next, `COc1cc(NS(=O)(=O)c2ccc(Cc3ccc4oc(=O)cc(C(F)(F)F)c4c3)cc2)cc(OC)c1` [Example 141, N-(3,5-Dimethoxyphenyl)-4-(2-oxo-4-trifluoromethyl-2H-chromen-6-ylmethyl)-benzenesulfonamide]: 3.24 µM; `Cc1ccc(-c2ccccc2)cc1NS(=O)(=O)c1ccc(Cc2ccc3[nH]c(=O)cc(C(F)(F)F)c3c2)cc1` [Example 22, N-(4-Methylbiphenyl-3-yl)-4-(2-oxo-4-trifluoromethyl-1,2-dihydroquinolin-6-ylmethyl)-benzenesulfonamide]: above 10 µM.
Compound `CN(CCC#N)S(=O)(=O)c1ccc(Cc2ccc3[nH]c(=O)cc(C(F)(F)F)c3c2)cc1` [Example 10, N-(2-Cyanoethyl)-N-methyl-4-(2-oxo-4-trifluoromethyl-1,2-dihydroquinolin-6-ylmethyl)benzenesulfonamide] came in with a concentration for half-maximal inhibition (IC50) above 10 µM.
Then `O=c1cc(C(F)(F)F)c2cc(Cc3ccc(S(=O)(=O)Nc4ccccc4N4CCCCC4)cc3)ccc2o1` [Example 146, 4-(2-Oxo-4-trifluoromethyl-2H-chromen-6-ylmethyl)-N-(2-piperidin-1-ylphenyl)-benzenesulfonamide], with 4.82 µM.
The compound `O=c1cc(C(F)(F)F)c2cc(Cc3ccc(S(=O)(=O)NCCc4c[nH]c5ccccc45)cc3)ccc2[nH]1` [Example 79, N-[2-(1H-Indol-3-yl)ethyl]-4-(2-oxo-4-trifluoromethyl-1,2-dihydroquinolin-6-ylmethyl)-benzenesulfonamide] came in with an IC50 of 10.3 µM.
Next, `CC(C)(NS(=O)(=O)c1ccc(Cc2ccc3oc(=O)cc(C(F)(F)F)c3c2)cc1)c1ccccc1` [Example 179, N-(1-Methyl-1-phenylethyl)-4-(2-oxo-4-trifluoromethyl-2H-chromen-6-ylmethyl)benzenesulfonamide]: above 10 µM.
The compound `O=c1cc(C(F)(F)F)c2cc(Cc3ccc(S(=O)(=O)NCc4c(F)ccc(F)c4Cl)cc3)ccc2o1` [Example 202, N-(2-Chloro-3,6-difluorobenzyl)-4-(2-oxo-4-trifluoromethyl-2H-chromen-6-ylmethyl)benzenesulfonamide] displayed an IC50 of 4.42 µM.
With `CCCCCN(CCO)S(=O)(=O)c1ccc(Cc2ccc3oc(=O)cc(C(F)(F)F)c3c2)cc1` [Example 105], the midpoint of inhibition, the IC50, lay at 3.52 µM.
In turn, `CCOc1ccccc1CNS(=O)(=O)c1ccc(Cc2ccc3[nH]c(=O)cc(C(F)(F)F)c3c2)cc1` [Example 71, N-(2-Ethoxybenzyl)-4-(2-oxo-4-trifluoromethyl-1,2-dihydroquinolino-6-ylmethyl)-benzenesulfonamide] displayed a half-inhibitory concentration (IC50) above 10 µM.
Next, `O=c1cc(C(F)(F)F)c2cc(Cc3ccc(S(=O)(=O)NCc4cccnc4)cc3)ccc2o1` [Example 163, 4-(2-Oxo-4-trifluoromethyl-2H-chromen-6-ylmethyl)-N-pyridin-3-ylmethylbenzenesulfonamide]: 3.08 µM; `CN1CCN(CCCNS(=O)(=O)c2ccc(Cc3ccc4[nH]c(=O)cc(C(F)(F)F)c4c3)cc2)CC1` [Example 75, N-[3-(4-Methylpiperazin-1-yl)propyl]-4-(2-oxo-4-trifluoromethyl-1,2-dihydroquinolin-6-ylmethyl)-benzenesulfonamide]: 6.7 µM.
For `O=c1cc(C(F)(F)F)c2cc(Cc3ccc(S(=O)(=O)N(CCO)C4CCCCC4)cc3)ccc2o1` [Example 95, N-Cyclohexyl-N-(2-hydroxyethyl)-4-(2-oxo-4-trifluoromethyl-2H-chromen-6-ylmethyl)benzenesulfonamide], the midpoint of inhibition, the IC50, lay at 1.03 µM.
Next, `CN(CCc1ccccn1)S(=O)(=O)c1ccc(Cc2ccc3[nH]c(=O)cc(C(F)(F)F)c3c2)cc1` [Example 13, N-Methyl-4-(2-oxo-4-trifluoromethyl-1,2-dihydroquinolin-6-ylmethyl)-N-(2-pyridin-2-ylethyl)benzenesulfonamide]: above 10 µM.
Compound `COc1cc(CNS(=O)(=O)c2ccc(Cc3ccc4[nH]c(=O)cc(C(F)(F)F)c4c3)cc2)cc(OC)c1` [Example 80, N-(3,5-Dimethoxybenzyl)-4-(2-oxo-4-trifluoromethyl-1,2-dihydroquinolin-6-ylmethyl)-benzenesulfonamide] registered a concentration for half-maximal inhibition (IC50) above 10 µM.
Then `C#Cc1ccc(NS(=O)(=O)c2ccc(Cc3ccc4[nH]c(=O)cc(C(F)(F)F)c4c3)cc2)cc1` [Example 15, N-(4-Ethynylphenyl)-4-(2-oxo-4-trifluoromethyl-1,2-dihydroquinolin-ylmethyl)benzenesulfonamide], with 2.8 µM.
